Measurements as given in patent US20180298024A1, “CORTISTATIN ANALOGS AND USES THEREOF” (President and Fellows of Harvard College, priority 2015, published 2018).
Several values for one entry are separate records, joined by “and”; a condition that tells them apart may be missing. Identical values can stand only once.

Columns and labels:
[1] = test system: sodium channel; test: Panlab sodium channel assay; format: binding; details: 10 μM
Procedure: (§1) Compounds A, B, C, and D were tested in Panlab assays to evaluate potential off-target activity using standard assay kits. Methods employed in these studies have been adapted from the scientific literature to maximize reliability and reproducibility. Reference standards were run as an integral part of each assay to ensure the validity of the results obtained.
Compound B was tested in a subset of 30 Panlab assays that included the hits from screening Compound F in addition to the Panlab hERG and sodium channel assay. This allows direct comparison of Compound B to Compound F in terms of off-target profile.

[2] = test system: off-targets (Panlabs); test: Panlab off-target assay panel; format: binding; details: 10 μM; for number of targets with ≥75% inhibition: Safety Panel = 28 binding assays (Eurofins Panlabs)
Procedure: as §1
IC50 values were determined by a non-linear, least squares regression analysis using MathIQ™ (ID Business Solutions Ltd., UK). Where inhibition constants (Ki) are presented, the Ki values were calculated using the equation of Cheng and Prusoff (Cheng, Y., Prusoff, W. H., Biochem. Pharmacol. 22:3099-3108, 1973) using the observed IC50 of the tested compound, the concentration of radioligand employed in the assay, and the historical values for the KD of the ligand (obtained experimentally at Eurofins Panlabs, Inc.). Where presented, the Hill coefficient (nH), defining the slope of the competitive binding curve, was calculated using MathIQ™.

[3] = molecular target: hERG (human ether-à-go-go-related gene) potassium channel (Homo sapiens, UniProt Q12809); test: in vitro; details: for IC50: hERG IC50, QPatch HT, room temperature
Procedure: (§2) The in vitro effects of compounds A, B, C, D, E, and F on the hERG (human ether-à-go-go-related gene) potassium channel current (a surrogate for IKr, the rapidly activating, delayed rectifier cardiac potassium current) expressed in mammalian cells were evaluated at room temperature using the QPatch HT (Sophion Bioscience A/S, Denmark), an automatic parallel patch clamp system. The test articles were evaluated at 1 μM, 3 μM, […] and 30 μM. Each test article concentration was tested in at least three cells. The duration of exposure to each test article concentration was a minimum of 3 minutes.

[4] = molecular target: hERG potassium channel (Homo sapiens, UniProt Q12809); test: in vitro; details: human
Procedure: as §2

[5] = TurboSol solubility evaluation in physiological saline; format: physicochemical; details: HB-PS+0.3% DMSO
[6] = Tolerability study of Compound A and Compound D (body weight); format: in vivo, female NSG mice; details: for initial loss in weight: 10 mg/kg dosing group (Compound A PO, Compound D IV), recovered after dosing holiday; for tolerability: doses at or below 3 mg/kg (Compound A PO, Compound D IV)
Procedure: Twenty-five female NSG mice were randomly assigned to various treatment groups as described in Table 11. All mice were treated for 7 days unless as indicated below.
On study days zero to six (seven doses), Compound A was administered via oral gavage in a volume of 10 mL/kg and Compound D was administered via intravenous injection into the lateral tail vein in a volume of 10 mL/kg. Body weights were recorded daily for fifteen days (days zero to fourteen) and animal health was assessed daily.
Mice were monitored clinically for signs of morbidity and for body weights daily. Mice showing signs of morbidity were euthanized as per study guidelines.

[7] = test system: SKNO-1; test: Half-maximal growth inhibition (GI50), SKNO-1; format: cell-based; details: Homo sapiens, 240 h, AML, M2, RUNX1-RUNX1T1, read-out: GI50 (nM), day 10
Procedure: (§3) Compounds A, B, C, D, and F were tested against various cell lines to probe their broad utility against cancer. Cortistatin A (CA) was also tested against the cell lines in a head to head fashion.

[8] = test system: HEL; test: Half-maximal growth inhibition (GI50), HEL; format: cell-based; details: Homo sapiens, 240 h, AML, erythroleukemia, JAK2V617F, read-out: GI50 (nM), day 10
Procedure: as §3

[9] = test system: MKPL1; test: Half-maximal growth inhibition (GI50), MKPL1; format: cell-based; details: Homo sapiens, 240 h, AML, M7, read-out: GI50 (nM), day 10
Procedure: as §3

[10] = test system: K562; test: Half-maximal growth inhibition (GI50), K562; format: cell-based; details: Homo sapiens, 240 h, CML, BCR-Abl, read-out: GI50 (nM), day 10
Procedure: as §3

[11] = test system: SET-2 AML cell line (FLAG-CDK8 WT vs FLAG-CDK8-W105M); test: CDK8 W105M versus wild type SET-2 cell competition (flow cytometry); format: cell-based; details: after 3 days and 7 days of treatment
Procedure: Compounds A, B, C, and D inhibit SET-2 AML cell line proliferation by inhibiting CDK8. ZsGreen (Clontech) and FLAG-CDK8 WT (wild type) or mCherry (Clontech) and FLAG-CDK8-W105M were expressed in SET 2 cells. The cells were mixed, the ratio of red to green fluorescence was determined by flow cytometry, and the cells were treated with the indicated compounds. After 3 days and 7 days of treatment, the ratio of red to green fluorescent cells was determined.

[12] = Individual Data Points (% Inhibition), hERG

Sequence of hERG (human ether-à-go-go-related gene) potassium channel (Q12809 whole entry): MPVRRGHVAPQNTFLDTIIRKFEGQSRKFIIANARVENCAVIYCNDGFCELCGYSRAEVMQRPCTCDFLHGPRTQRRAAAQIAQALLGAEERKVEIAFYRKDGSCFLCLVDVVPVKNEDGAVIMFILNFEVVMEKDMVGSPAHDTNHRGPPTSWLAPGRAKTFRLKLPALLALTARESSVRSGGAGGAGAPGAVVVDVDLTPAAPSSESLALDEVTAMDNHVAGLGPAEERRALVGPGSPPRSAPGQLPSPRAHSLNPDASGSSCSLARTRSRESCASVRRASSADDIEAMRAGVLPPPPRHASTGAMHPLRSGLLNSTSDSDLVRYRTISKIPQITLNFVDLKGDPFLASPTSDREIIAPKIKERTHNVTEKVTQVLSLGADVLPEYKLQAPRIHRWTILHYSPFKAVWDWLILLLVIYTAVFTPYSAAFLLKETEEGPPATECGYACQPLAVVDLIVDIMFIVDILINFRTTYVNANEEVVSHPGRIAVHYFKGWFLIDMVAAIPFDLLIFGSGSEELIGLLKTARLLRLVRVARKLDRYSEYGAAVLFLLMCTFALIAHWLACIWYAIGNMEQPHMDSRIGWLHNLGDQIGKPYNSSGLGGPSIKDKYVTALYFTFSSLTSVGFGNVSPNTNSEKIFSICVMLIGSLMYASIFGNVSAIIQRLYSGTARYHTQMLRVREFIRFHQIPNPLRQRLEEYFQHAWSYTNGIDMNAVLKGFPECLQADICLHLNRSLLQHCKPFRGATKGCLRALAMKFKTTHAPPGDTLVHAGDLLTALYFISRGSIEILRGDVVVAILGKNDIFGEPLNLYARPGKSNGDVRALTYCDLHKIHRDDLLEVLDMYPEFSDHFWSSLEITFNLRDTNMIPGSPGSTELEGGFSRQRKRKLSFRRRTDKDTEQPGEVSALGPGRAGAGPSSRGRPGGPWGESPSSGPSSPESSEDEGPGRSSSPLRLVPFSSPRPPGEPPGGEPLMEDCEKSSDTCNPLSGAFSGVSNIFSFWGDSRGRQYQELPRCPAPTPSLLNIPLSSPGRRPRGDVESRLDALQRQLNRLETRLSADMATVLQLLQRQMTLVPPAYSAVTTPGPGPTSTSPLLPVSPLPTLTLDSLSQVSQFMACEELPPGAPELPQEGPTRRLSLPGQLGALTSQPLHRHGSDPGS
Sequence of hERG potassium channel (Q12809 whole entry): as above

With `C[C@]12CC=C3C=C4CC[C@@H](N5C[C@H](O)[C@@H](O)C5)C[C@]45CC[C@]3(O5)[C@@H]1CC[C@@H]2c1ccc2ccncc2c1` [Compound D] the “% inhibition, Panlab sodium channel assay” value [1] was 65%, the “number of targets with ≥75% inhibition” value [2] was 3 and the “number of targets with greater than 75% inhibition” value ([2]; subset of 30 Panlab assays) was 3. For the same molecule, the “activity in the hERG assay” value [3] was “single digit micromolar activity”, the IC50 [3] was 6.28 µM and 6.3 µM and the “fold less hERG activity than Compound E” value ([3]; human) was 10-100 fold. It also gave an inhibition at 1 µM [4, 12] of 11.5%, an inhibition at 3 µM [4, 12] of 25.1% and an inhibition at 10 µM [4, 12] of 71.6%. The inhibition at 30 µM [4, 12] was 97.9%, the inhibition at 1 µM ([4]; Mean % hERG Inhibition) was 8% and the inhibition at 3 µM ([4]; Mean % hERG Inhibition) was 27.3%. The inhibition at 10 µM ([4]; Mean % hERG Inhibition) was 63.9%, the inhibition at 30 µM ([4]; Mean % hERG Inhibition) was 91.3% and the “Average LSU (×1000)” value ([5]; 1 μM) was 4.7 LSU (×1000). For the same molecule, the “Average LSU (×1000)” value ([5]; 3 μM) was 6.4 LSU (×1000), the “Average LSU (×1000)” value ([5]; 10 μM) was 7.0 LSU (×1000) and the “Average LSU (×1000)” value ([5]; 30 μM) was 16.6 LSU (×1000). For the same molecule, the “solubility in the TurboSol assay” value [5] was “slightly insoluble at 30 μM concentrations”, the “initial loss in weight” value [6] was “approximately 20%” and the “tolerability” value [6] was “well tolerated”. The GI50 [7] was < 1 nM, the GI50 [8] was > 1000 nM and the GI50 [9] was 1.5 nM. For the same molecule, the GI50 [10] was > 1000 nM and the “ratio of red (CDK8 W105M) to green (wild type) fluorescent cells” value (shortened to “ratio of red (CDK8 W105M) to green”) [11] was “dose-dependently shifted the ratio of red to green cells”.
With `C[C@]12CC=C3C=C4CC[C@@H](O)C[C@]45CC[C@]3(O5)[C@@H]1CC[C@@H]2c1ccc2ccncc2c1` [Compound A, (3S,3aR,9R,10aR,12aS,12bR)-3-(isoquinolin-7-yl)-3a-methyl-1,2,3,3a,4,7,8,9,10,11,12,12b-dodecahydro-10a,12a-epoxybenzo[4,5]cyclohepta[1,2-e]inden-9-ol] the “number of targets with ≥75% inhibition” value [2] was 0, the “number of targets with greater than 50% inhibition” value ([2]; over 100 Panlab assays) was 8 and the IC50 [3] was > 30 µM. The “Mean % hERG Inhibition” value ([3]; human, 3 µM) was 9.2%, the inhibition at 10 µM [4, 12] was 17.6% and the inhibition at 1 µM ([4]; Mean % hERG Inhibition) was 4%. The inhibition at 3 µM ([4]; Mean % hERG Inhibition) was 9%, the inhibition at 10 µM ([4]; Mean % hERG Inhibition) was 19.6% and the inhibition at 30 µM ([4]; Mean % hERG Inhibition) was 43.7%. For the same molecule, the “Average LSU (×1000)” value ([5]; 1 μM) was 5.8 LSU (×1000), the “Average LSU (×1000)” value ([5]; 3 μM) was 5.1 LSU (×1000) and the “Average LSU (×1000)” value ([5]; 10 μM) was 9.0 LSU (×1000). For the same molecule, the “Average LSU (×1000)” value ([5]; 30 μM) was 41.0 LSU (×1000), the “solubility in the TurboSol assay” value [5] was “slightly insoluble at concentrations of 10 μM and 30 μM” and the “initial loss in weight” value [6] was “approximately 15%”. The “tolerability” value [6] was “well tolerated”, the GI50 [7] was 2 nM and the GI50 [8] was > 1000 nM. For the same molecule, the “ratio of red (CDK8 W105M) to green” value [11] was “dose-dependently shifted the ratio of red to green cells”.
For `C[C@]12CC=C3C=C4CC[C@@H](N5CC[C@@H](N)C5)C[C@]45CC[C@]3(O5)[C@@H]1CC[C@@H]2c1ccc2ccncc2c1` [Compound B], the “% inhibition, Panlab sodium channel assay” value [1] was 65%, the “number of targets with ≥75% inhibition” value [2] was 8 and the “number of targets with greater than 50% inhibition” value ([2]; subset of 30 Panlab assays) was 8. For the same molecule, the IC50 [3] was 10.7 µM, the “fold less hERG activity than Compound E” value ([3]; human) was 10-100 fold and the inhibition at 1 µM [4, 12] was 5.4%. The inhibition at 3 µM [4, 12] was 17.1%, the inhibition at 30 µM [4, 12] was 89.4% and the inhibition at 1 µM ([4]; Mean % hERG Inhibition) was 4.1%. The inhibition at 3 µM ([4]; Mean % hERG Inhibition) was 18.9%, the inhibition at 10 µM ([4]; Mean % hERG Inhibition) was 44.5% and the inhibition at 30 µM ([4]; Mean % hERG Inhibition) was 82.7%. The “Average LSU (×1000)” value ([5]; 1 μM) was 2.2 LSU (×1000), the “Average LSU (×1000)” value ([5]; 3 μM) was 3.2 LSU (×1000) and the “Average LSU (×1000)” value ([5]; 10 μM) was 4.5 LSU (×1000). The “Average LSU (×1000)” value ([5]; 30 μM) was 8.6 LSU (×1000), the “solubility in the TurboSol assay” value [5] was “slightly insoluble at 30 μM concentrations” and the GI50 [7] was 3 nM. The GI50 [8] was > 1000 nM, the GI50 [9] was 2 nM and the “ratio of red (CDK8 W105M) to green” value [11] was “dose-dependently shifted the ratio of red to green cells”.
With `C[C@]12CC=C3C=C4CC[C@@H](N5CC(N)C5)C[C@]45CC[C@]3(O5)[C@@H]1CC[C@@H]2c1ccc2ccncc2c1` [Compound C] the “% inhibition, Panlab sodium channel assay” value [1] was 66%, the “number of targets with ≥75% inhibition” value [2] was 4 and the “number of targets with greater than 75% inhibition” value ([2]; subset of 30 Panlab assays) was 4. The IC50 [3] was 10.9 µM, the inhibition at 3 µM [4, 12] was 12.7% and the inhibition at 10 µM [4, 12] was 45.8%. It also gave an inhibition at 30 µM [4, 12] of 66.9%, an inhibition at 1 µM ([4]; Mean % hERG Inhibition) of 5.8% and an inhibition at 3 µM ([4]; Mean % hERG Inhibition) of 17.1%. For the same molecule, the inhibition at 10 µM ([4]; Mean % hERG Inhibition) was 49.8%, the inhibition at 30 µM ([4]; Mean % hERG Inhibition) was 75.5% and the “Average LSU (×1000)” value ([5]; 1 μM) was 2.8 LSU (×1000). For the same molecule, the “Average LSU (×1000)” value ([5]; 3 μM) was 3.5 LSU (×1000), the “Average LSU (×1000)” value ([5]; 10 μM) was 4.9 LSU (×1000) and the “Average LSU (×1000)” value ([5]; 30 μM) was 13.0 LSU (×1000). The “solubility in the TurboSol assay” value [5] was “slightly insoluble at 30 μM concentrations”, the GI50 [7] was 3 nM and the GI50 [8] was > 1000 nM. For the same molecule, the “ratio of red (CDK8 W105M) to green” value [11] was “dose-dependently shifted the ratio of red to green cells”.
